Data: PubChem BioAssay (NCI)
Values joined by “and” are separate entries in the source; they are usually repeats but may differ in a detail not shown here. Equal values may be shown once.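 Compound exposure: 48 hours, 5 concentrations, 96-well plates. GI50 marks 50% less growth. TGI is the concentration that stops growth completely.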

Legend:
Assay in all cases: NCI-60 cell line screen, 48 h
SR leukemia = test system: SR leukemia
HOP-62 NSCLC = test system: HOP-62 NSCLC
K-562 leukemia = test system: K-562 leukemia
MALME-3M melanoma = test system: MALME-3M melanoma
NCI-H226 lung = test system: NCI-H226 lung
NCI-H522 lung = test system: NCI-H522 lung
SF-268 CNS = test system: SF-268 CNS
OVCAR-4 ovarian = test system: OVCAR-4 ovarian
HL-60(TB) leukemia = test system: HL-60(TB) leukemia
CAKI-1 renal = test system: CAKI-1 renal

Row | Structure (SMILES) | GI50 (SR leukemia) | TGI (SR leukemia) | GI50 (HOP-62 NSCLC) | TGI (HOP-62 NSCLC) | GI50 (K-562 leukemia) | TGI (K-562 leukemia) | GI50 (MALME-3M melanoma) | TGI (MALME-3M melanoma) | GI50 (NCI-H226 lung) | TGI (NCI-H226 lung) | GI50 (NCI-H522 lung) | TGI (NCI-H522 lung) | GI50 (SF-268 CNS) | TGI (SF-268 CNS) | GI50 (OVCAR-4 ovarian) | TGI (OVCAR-4 ovarian) | GI50 (HL-60(TB) leukemia) | TGI (HL-60(TB) leukemia) | TGI (CAKI-1 renal) | GI50 (CAKI-1 renal)
1 | Cc1cc(N2CCCCC2)nc(N(CCCNc2ccnc3cc(Cl)ccc23)Cc2ccco2)n1 | 1690 nM | 4.71 µM | 1380 nM | 4.1 µM | 1380 nM | 5.37 µM | 2030 nM | 3.68 µM | 2900 nM | 11.8 µM | 2630 nM | 7.69 µM | 2860 nM | 11.9 µM | 2690 nM | 14.3 µM | 1940 nM | 4.51 µM |  | 
2 | O=c1/c(=C/c2cccc([N+](=O)[O-])c2)sc2nc3ccccc3n12 |  |  |  | > 100 µM |  | > 100 µM |  | > 100 µM |  | > 100 µM |  |  |  | > 100 µM |  | > 100 µM |  | > 100 µM |  | 
3 | CCOC(=O)C12CCCC1(O)N(NC(=O)c1ccccc1)C(C)=C2C(=O)OC (stereo not drawn) |  |  |  | > 100 µM |  | > 100 µM |  | > 100 µM |  | > 100 µM |  | > 100 µM |  | > 100 µM |  | > 100 µM |  | > 100 µM | > 100 µM | 
4 | CC1=C(C(=O)Nc2ccc(F)c(Cl)c2)C(c2ccccc2Cl)NC(=S)N1 (stereo not drawn) | 23100 nM | > 50 µM | > 50000 nM | > 50 µM | 21700 nM | > 50 µM |  |  |  |  | 35700 nM | > 50 µM | 27600 nM | > 50 µM |  |  | 25600 nM | > 50 µM | > 50 µM | 37 µM
5 | Oc1ccccc1-c1nn(CNc2cccc(Cl)c2)c(=S)o1 | 15100 nM | 49.4 µM | 90800 nM | > 100 µM | 38400 nM | > 100 µM |  |  | 54200 nM | > 100 µM | > 100000 nM | > 100 µM | 59400 nM | > 100 µM |  |  |  |  | > 100 µM | 65.4 µM
6 | CN(C)c1ccc(N2Cc3ccccc3OC3=C2C(=O)c2c(O)ccc(O)c2C3=O)cn1 | 127 nM | > 100 µM | 1560 nM | 3.86 µM | 177 nM | 1.58 µM | 218 nM | 0.495 µM | 854 nM | 3.66 µM | 53.5 nM | 0.217 µM | 370 nM | 1.59 µM | 330 nM | 1.29 µM | 147 nM | 0.538 µM |  | 
7 | CCOC(=O)/C(O)=C(/c1n[nH]c(=O)c2ccccc12)[N+](=O)[O-] |  |  |  | > 100 µM |  | > 100 µM |  | > 100 µM |  | > 100 µM |  | > 100 µM |  | > 100 µM |  | > 100 µM |  | > 100 µM |  | 
8 | Cc1[nH]c2ccccc2c1C1Cc2ccccc2N1C(=O)/C=C/C=C/c1ccccc1 (stereo not drawn) |  | > 100 µM |  | > 100 µM |  | > 100 µM |  | > 100 µM |  | > 100 µM |  | > 100 µM |  |  |  | > 100 µM |  | > 100 µM | > 100 µM | 
9 | CC(=O)[CH-]C(=O)c1ccccc1.CC(=O)[CH-]C(=O)c1ccccc1.CC[O-].CC[O-].[Zr+4] |  |  | > 100000 nM | > 100 µM | > 100000 nM | > 100 µM | > 100000 nM | > 100 µM | > 100000 nM | > 100 µM | > 100000 nM | > 100 µM | > 100000 nM | > 100 µM | > 100000 nM | > 100 µM | > 100000 nM | > 100 µM | > 100 µM | 62.8 µM
10 | CCCCCCCCCCCCCC(=O)O[C@H]1CC[C@H](NC(=O)[C@H](OC)[C@H](O)[C@@H](O)[C@H](O)/C=C/C(C)C)C(=O)NC1 | < 1 nM | 9.3 µM | < 1 nM | 51.2 µM and 34 µM |  | 11.8 µM and 15.4 µM |  | 7.97 µM and 38.7 µM | 2.06 nM | 4.29 µM |  |  |  | 18.8 µM and 22.5 µM | 2.76 nM | 29 µM and 31.3 µM |  |  |  | 
11 | CN(C)CCNC(=O)c1cc2ccccc2c2nc3ccccc3nc12 |  | 3.68 µM |  | 5 µM |  | 1.96 µM |  | 2.06 µM |  | 2.44 µM |  | > 100 µM |  | 2.02 µM |  | 2.34 µM |  |  | > 21.3 µM | 
12 | COc1ccc(-c2[nH]c3ccccc3c2C=C(C#N)C#N)cc1 |  |  | 962 nM | 21.8 µM |  |  | 874 nM | > 100 µM | 873 nM | > 20.1 µM | 798 nM | 10.3 µM | 708 nM | 65.6 µM | 797 nM | > 100 µM | 271 nM | 0.714 µM |  | 0.625 µM
13 | O=S1c2ccccc2N=C(c2ccc3ccccc3c2)CC1C1=CC=CCC1 (stereo not drawn) |  |  |  | 40.4 µM |  | 27.4 µM |  | 62.3 µM |  | 43.9 µM |  | 33.2 µM |  | > 100 µM |  |  |  | 36.8 µM | 29.6 µM | 
14 | COc1cc2nc(-c3cnc(N(C)C)nc3)nc(NC3CCN(Cc4ccccc4)CC3)c2cc1OC | 273 nM | 0.938 µM | 1690 nM | 3.48 µM | 369 nM | 1.95 µM | 1660 nM | 3.42 µM | 1730 nM | 3.92 µM |  |  | 1730 nM | 3.72 µM |  |  | 1510 nM | 3.75 µM | 2.81 µM | 1.44 µM
15 | CCOC(C)C(/C=N/NC(N)=S)=NNC(N)=S (stereo not drawn) |  | > 100 µM |  | > 100 µM |  | > 100 µM |  | > 100 µM |  |  |  | > 100 µM |  | > 100 µM |  | > 100 µM |  | > 100 µM | > 100 µM | 
16 | [O-]c1c2c(nn1-c1ccccc1)c1ccccc1c[n+]2Cc1ccccc1 |  | > 100 µM |  | > 100 µM |  | > 100 µM |  | > 100 µM |  | > 100 µM |  | > 100 µM |  | > 100 µM |  | > 100 µM |  | > 100 µM |  | 
17 | C[C@@H]1CN(C(=O)c2ccc(NC(=O)c3cc(O[C@H](C)c4c(Cl)ccc(F)c4Cl)c(N)nn3)cc2)C[C@H](C)N1 | 10.4 nM | 2.78 µM | 2500 nM | 14.4 µM | 370 nM | 10.2 µM | 808 nM | 2.94 µM | 3900 nM | 22.5 µM | 3100 nM | 12.2 µM | 4500 nM | 17.7 µM | 8840 nM | 24.1 µM | 1210 nM | 3.3 µM |  | 
18 | O=S(=O)(/C=C/c1ccc(Cl)cc1Cl)Cc1ccccc1CS(=O)(=O)/C=C/c1ccc(Cl)cc1Cl |  | > 100 µM |  | > 100 µM |  | > 100 µM |  |  |  | > 100 µM |  | > 100 µM |  | > 100 µM |  | > 100 µM |  |  | > 100 µM | 
